The source of these data is patent US20090105305A1, “Therapeutic Agents - 550” (AstraZeneca AB, priority 2006, published 2009).

The target in one experiment is T1, human Fatty Acid Synthase (Homo sapiens, UniProt P49327).
T1 construct: made in house
T1 sequence (P49327 whole entry): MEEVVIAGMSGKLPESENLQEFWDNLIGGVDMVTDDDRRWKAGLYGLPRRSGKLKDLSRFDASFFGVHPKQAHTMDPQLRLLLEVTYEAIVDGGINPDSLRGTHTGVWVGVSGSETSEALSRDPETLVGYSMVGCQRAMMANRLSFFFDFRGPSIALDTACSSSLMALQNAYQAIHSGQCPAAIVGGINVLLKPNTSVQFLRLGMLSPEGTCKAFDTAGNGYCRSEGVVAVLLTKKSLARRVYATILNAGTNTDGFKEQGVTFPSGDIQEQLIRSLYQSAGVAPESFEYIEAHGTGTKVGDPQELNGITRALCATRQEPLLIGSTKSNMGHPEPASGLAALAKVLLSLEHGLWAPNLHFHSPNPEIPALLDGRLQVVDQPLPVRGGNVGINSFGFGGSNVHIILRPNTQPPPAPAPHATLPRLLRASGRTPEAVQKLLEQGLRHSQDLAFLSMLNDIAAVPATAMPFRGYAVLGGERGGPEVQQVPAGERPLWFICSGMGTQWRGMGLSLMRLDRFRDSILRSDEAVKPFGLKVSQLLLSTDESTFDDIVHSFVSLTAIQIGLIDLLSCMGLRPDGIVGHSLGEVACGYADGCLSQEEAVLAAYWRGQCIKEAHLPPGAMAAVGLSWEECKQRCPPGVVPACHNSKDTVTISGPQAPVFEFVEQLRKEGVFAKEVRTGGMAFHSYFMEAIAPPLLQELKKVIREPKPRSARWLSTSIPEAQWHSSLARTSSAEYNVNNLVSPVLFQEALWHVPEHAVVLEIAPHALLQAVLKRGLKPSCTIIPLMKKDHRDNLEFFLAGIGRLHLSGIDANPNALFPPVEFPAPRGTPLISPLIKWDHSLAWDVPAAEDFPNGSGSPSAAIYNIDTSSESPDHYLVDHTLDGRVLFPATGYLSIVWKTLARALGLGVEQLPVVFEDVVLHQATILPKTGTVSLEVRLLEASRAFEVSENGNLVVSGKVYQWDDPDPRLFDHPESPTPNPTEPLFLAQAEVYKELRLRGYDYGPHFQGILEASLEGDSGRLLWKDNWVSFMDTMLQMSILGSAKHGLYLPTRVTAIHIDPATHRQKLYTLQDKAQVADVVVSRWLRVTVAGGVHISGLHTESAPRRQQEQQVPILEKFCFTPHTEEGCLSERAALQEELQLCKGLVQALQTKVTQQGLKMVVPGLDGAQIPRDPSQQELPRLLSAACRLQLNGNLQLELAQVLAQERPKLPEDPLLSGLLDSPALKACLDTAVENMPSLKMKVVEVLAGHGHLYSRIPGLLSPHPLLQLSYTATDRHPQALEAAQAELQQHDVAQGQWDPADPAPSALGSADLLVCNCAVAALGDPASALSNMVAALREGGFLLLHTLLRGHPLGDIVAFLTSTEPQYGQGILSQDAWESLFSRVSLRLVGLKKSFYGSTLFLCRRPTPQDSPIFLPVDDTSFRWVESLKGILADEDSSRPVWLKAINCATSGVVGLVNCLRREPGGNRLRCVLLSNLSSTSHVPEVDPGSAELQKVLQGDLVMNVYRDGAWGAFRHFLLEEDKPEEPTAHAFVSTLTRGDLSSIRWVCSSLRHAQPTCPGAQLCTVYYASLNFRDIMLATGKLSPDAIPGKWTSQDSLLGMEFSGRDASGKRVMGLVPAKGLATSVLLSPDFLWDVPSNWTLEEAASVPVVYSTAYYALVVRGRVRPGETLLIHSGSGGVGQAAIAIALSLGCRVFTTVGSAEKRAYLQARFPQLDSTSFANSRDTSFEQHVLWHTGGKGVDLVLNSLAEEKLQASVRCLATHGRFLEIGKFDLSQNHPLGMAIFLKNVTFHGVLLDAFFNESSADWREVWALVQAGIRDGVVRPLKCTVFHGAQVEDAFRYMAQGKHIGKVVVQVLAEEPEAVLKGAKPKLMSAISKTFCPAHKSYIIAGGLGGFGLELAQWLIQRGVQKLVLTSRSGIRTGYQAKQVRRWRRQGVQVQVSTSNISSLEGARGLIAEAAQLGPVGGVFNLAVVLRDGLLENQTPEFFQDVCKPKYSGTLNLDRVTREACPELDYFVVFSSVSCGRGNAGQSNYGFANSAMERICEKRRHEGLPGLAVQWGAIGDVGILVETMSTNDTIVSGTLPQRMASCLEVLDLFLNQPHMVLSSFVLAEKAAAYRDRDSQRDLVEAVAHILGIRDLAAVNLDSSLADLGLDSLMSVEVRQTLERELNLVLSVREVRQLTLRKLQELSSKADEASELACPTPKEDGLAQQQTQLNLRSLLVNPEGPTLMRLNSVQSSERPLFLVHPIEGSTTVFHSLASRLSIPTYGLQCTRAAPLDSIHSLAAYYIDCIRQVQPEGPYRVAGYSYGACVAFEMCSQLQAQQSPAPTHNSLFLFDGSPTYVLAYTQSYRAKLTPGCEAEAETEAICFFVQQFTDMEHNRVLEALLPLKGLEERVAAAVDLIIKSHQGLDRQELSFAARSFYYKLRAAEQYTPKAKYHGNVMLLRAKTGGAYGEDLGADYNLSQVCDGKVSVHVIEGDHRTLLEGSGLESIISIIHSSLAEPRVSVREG
Description: Human FAS enzyme assay (decrease in NADPH fluorescence). The following applies: % inhibition at a concentration of 100 micromolar. In kind it is biochemical. In a few lines:
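Readout: decrease in NADPH fluorescence (340 nm ex, 460 nm em) after 60 min at RT, background-subtracted against a read taken before substrate. Substrate mix contained 500 μM malonyl-CoA and 150 μM acetyl-CoA. It was added after 15 min enzyme (0.4 μg in-house human FAS)–compound–NADPH preincubation in Tris pH 7.5 buffer; % inhibition was fitted to IC50.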
By inhibition is commonly meant the drop in the measured response relative to a control, in per cent. In the case of `COC(=O)CCS(=O)(=O)Nc1cc(C(=O)N2CCC(c3ccc(C#N)cc3)CC2)ccc1C` [Example 144, Methyl 3-[[5-[4-(4-cyanophenyl)piperidine-1-carbonyl]-2-methyl-phenyl]sulfamoyl]propanoate], the inhibition at 100 µM is 88%.
The same measure, in the same setting: under `Cc1ccc(C(=O)N2CCC(c3ccc(C#N)cc3)CC2)cc1NS(=O)(=O)Cc1cccc(F)c1` [Example 27, N-[5-[4-(4-cyanophenyl)piperidine-1-carbonyl]-2-methyl-phenyl]-1-(3-fluorophenyl)methanesulfonamide] stands 96%; under `Cc1ccc(C(=O)N2CCC(c3ccc(C#N)cc3)CC2)cc1NS(=O)(=O)CCC(=O)O` [Example 151, 3-[[5-[4-(4-cyanophenyl)piperidine-1-carbonyl]-2-methyl-phenyl]sulfamoyl]propanoic acid], 81%; under `CCS(=O)(=O)NCc1ccc(C2CCN(C(=O)c3ccc(C)c(NS(C)(=O)=O)c3)CC2)cc1` [Example 227, N-[[4-[1-(3-methanesulfonamido-4-methylbenzoyl)piperidin-4-yl]phenyl]methyl]ethanesulfonamide], 87.4%.
With `COc1ccccc1S(=O)(=O)Nc1cc(C(=O)N2CCC(c3ccc(C#N)cc3)CC2)ccc1C` [Example 25, N-[5-[4-(4-cyanophenyl)piperidine-1-carbonyl]-2-methyl-phenyl]-2-methoxy-benzenesulfonamide], the inhibition at 100 µM is 87%.
Take `Cc1ccc(C(=O)N2CCC(c3ccc(C#N)cc3)CC2)cc1NS(=O)(=O)c1ccc(Cl)s1` [Example 19, 5-chloro-N-[5-[4-(4-cyanophenyl)piperidine-1-carbonyl]-2-methyl-phenyl]thiophene-2-sulfonamide]: the inhibition at 100 µM was found to be 96%.
`Cc1ccc(C(=O)N2CCC(c3ccc(C#N)cc3)CC2)cc1NS(=O)(=O)c1ccn(C)n1` [Example 140, N-[5-[4-(4-cyanophenyl)piperidine-1-carbonyl]-2-methyl-phenyl]-1-methyl-pyrazole-3-sulfonamide]: the inhibition at 100 µM came out at 100%.
On to `COC(=O)CS(=O)(=O)NCc1ccc(C2CCN(C(=O)c3ccc(C)c(NS(C)(=O)=O)c3)CC2)cc1` [Example 245, Methyl 2-[[4-[1-(3-methanesulfonamido-4-methylbenzoyl)piperidin-4-yl]phenyl]methylsulfamoyl]acetate], for which the inhibition at 100 µM amounted to 104%.
`N#Cc1ccc(C2CCN(C(=O)c3ccc(F)c(NS(=O)(=O)Cc4ccccc4)c3)CC2)cc1` [Example 194, N-[5-[4-(4-cyanophenyl)piperidine-1-carbonyl]-2-fluorophenyl]-1-phenylmethane-sulfonamide]: the inhibition at 100 µM came out at 69%.
As for `Cc1ccc(C(=O)N2CCC(c3ccc(C#N)cc3)CC2)cc1NS(=O)(=O)CCCNS(C)(=O)=O` [Example 132, N-[5-[4-(4-cyanophenyl)piperidine-1-carbonyl]-2-methyl-phenyl]-3-methanesulfonamido-propane-1-sulfonamide], the inhibition at 100 µM was found to be 88%.
Take `Cc1ccc(NS(=O)(=O)c2ccccc2C#N)cc1C(=O)N1CCC(c2ccc(C#N)cc2)CC1` [Example 46, 2-cyano-N-[3-[4-(4-cyanophenyl)piperidine-1-carbonyl]-4-methyl-phenyl]benzenesulfonamide]: the inhibition at 100 µM turned out to be 79%.
On to `Cc1ccc(C(=O)N2CCC(c3ccc(C#N)cc3)CC2)cc1NS(=O)(=O)CC(=O)N(C)C` [Example 91, 2-[[5-[4-(4-cyanophenyl)piperidine-1-carbonyl]-2-methyl-phenyl]sulfamoyl]-N,N-dimethyl-acetamide], for which the inhibition at 100 µM turned out to be 80%.
For the compound `Cc1ccc(C(=O)N2CCC(c3ccc(C#N)cc3)CC2)cc1NS(=O)(=O)CCCNC(C)C` [Example 73, N-[5-[4-(4-cyanophenyl)piperidine-1-carbonyl]-2-methyl-phenyl]-3-(propan-2-ylamino)propane-1-sulfonamide], the inhibition at 100 µM is 94%.
`CCCS(=O)(=O)Nc1cc(C(=O)N2CCC(c3ccc(C#N)cc3)CC2)c(C)cc1C` [Example 117, N-[5-[4-(4-cyanophenyl)piperidine-1-carbonyl]-2,4-dimethyl-phenyl]propane-1-sulfonamide]: the inhibition at 100 µM stood at 98%.
`CNC(=O)c1ccc(C2CCN(C(=O)c3ccc(C)c(NS(C)(=O)=O)c3)CC2)cc1` [Example 156, 4-[1-(3-methanesulfonamido-4-methyl-benzoyl)-4-piperidyl]-N-methyl-benzamide]: the inhibition at 100 µM came out at 74%.
For `Cc1ccc(C(=O)N2CCC(c3ccc(C#N)cc3)CC2)cc1NS(=O)(=O)c1cccc(C(=O)NC(C)C)c1` [Example 85, 3-[[5-[4-(4-cyanophenyl)piperidine-1-carbonyl]-2-methyl-phenyl]sulfamoyl]-N-propan-2-yl-benzamide], the inhibition at 100 µM is 95%.
Take `Cc1ccc(C(=O)N2CCC(c3ccc(C#N)cc3)CC2)cc1NS(=O)(=O)C1CCCCC1` [Example 17, N-[5-[4-(4-cyanophenyl)piperidine-1-carbonyl]-2-methyl-phenyl]cyclohexanesulfonamide]: the inhibition at 100 µM amounted to 94%.
Take `CCC(=O)NCc1ccc(C2CCN(C(=O)c3ccc(C)c(NS(C)(=O)=O)c3)CC2)cc1` [Example 225, N—[[4-[1-(3-methanesulfonamido-4-methylbenzoyl)piperidin-4-yl]phenyl]methyl]propanamide]: the inhibition at 100 µM worked out at 89.1%.
For `Cc1ccc(C(=O)N2CCC(c3ccc(C(=O)N(C)C)cc3)CC2)cc1NS(=O)(=O)Cc1ccccc1` [Example 204, 4-[1-[3-(benzylsulfonylamino)-4-methylbenzoyl]piperidin-4-yl]-N,N-dimethylbenzamide], the inhibition at 100 µM worked out at 78%.
Still for that read-out and setting: the same measure for `Cc1ccc(C(=O)N2CCC(c3ccc(C(=O)NC4CC4)cc3)CC2)cc1NS(C)(=O)=O` [Example 184, N-cyclopropyl-4-[1-(3-methanesulfonamido-4-methylbenzoyl)piperidin-4-yl]benzamide]: 84%; for `Cc1ccc(C(=O)N2CCC(c3ccc(C(=O)NCCN(C)C)cc3)CC2)cc1NS(C)(=O)=O` [Example 222, N-(2-dimethylaminoethyl)-4-[1-(3-methanesulfonamido-4-methylbenzoyl)piperidin-4-yl]benzamide]: 64%.
On the same count and under the same terms, the same measure for `Cc1ccc(C(=O)N2CCC(c3ccc(C(=O)c4nccs4)cc3)CC2)cc1NS(C)(=O)=O` [Example 188, N-[2-methyl-5-[4-[4-(1,3-thiazole-2-carbonyl)phenyl]piperidine-1-carbonyl]phenyl]methanesulfonamide]: 110%; for `CCS(=O)(=O)Nc1cc(C(=O)N2CCC(c3ccc(C#N)cc3)CC2)c(C)cc1C` [Example 166, N-[5-[4-(4-cyanophenyl)piperidine-1-carbonyl]-2,4-dimethylphenyl]ethanesulfonamide]: 96%.
For `Cc1ccc(C(=O)N2CCC(c3ccc(S(C)(=O)=O)cc3)CC2)cc1NS(=O)(=O)Cc1ccccc1` [Example 193, N-[2-methyl-5-[4-(4-methylsulfonylphenyl)piperidine-1-carbonyl]phenyl]-1-phenyl-methanesulfonamide], the inhibition at 100 µM is 70%.
Regarding `N#Cc1ccc(C2CCN(C(=O)c3ccc(Cl)c(NS(=O)(=O)c4ccc(Cl)cc4)c3)CC2)cc1` [Example 192, 4-chloro-N-[2-chloro-5-[4-(4-cyanophenyl)piperidine-1-carbonyl]phenyl]benzene-sulfonamide], the inhibition at 100 µM was 67%.

The experiment is the same for the next values; noted with them: compounds excluded from the claims by proviso.
Consider `Cc1ccc(C(=O)N2CCC(c3ccc(C#N)cc3C)CC2)cc1NS(C)(=O)=O` [N-[5-[4-(4-cyano-2-methylphenyl)piperidine-1-carbonyl]-2-methylphenyl]methanesulfonamide], for which the “IC50s in the range of about 0.001 μM to about 30 μM” value (“IC50s in the range” below) is given as “do not have IC50s in the range of about 0.001 μM to about 30 μM”.
For `N#Cc1ccc(C2CCN(C(=O)c3ccc(OC(F)(F)F)c(NS(=O)(=O)Cc4ccccc4)c3)CC2)cc1` [N-[5-[4-(4-cyanophenyl)piperidine-1-carbonyl]-2-(trifluoromethoxy)phenyl]-1-phenylmethanesulfonamide], the “IC50s in the range” value was “do not have IC50s in the range of about 0.001 μM to about 30 μM”.
Still for that read-out and setting: the same measure for `Cc1ccc(C(=O)N2CCC(c3ccccc3)CC2)cc1NS(C)(=O)=O` [N-[2-methyl-5-(4-phenylpiperidine-1-carbonyl)phenyl]methanesulfonamide]: “do not have IC50s in the range of about 0.001 μM to about 30 μM”.
Consider `Cc1ccc(C(=O)N2CCC(O)(c3ccccc3)CC2)cc1NS(C)(=O)=O` [N-[5-(4-hydroxy-4-phenylpiperidine-1-carbonyl)-2-methylphenyl]methanesulfonamide], for which the “IC50s in the range” value is recorded as “do not have IC50s in the range of about 0.001 μM to about 30 μM”.
`Cc1ccc(C(=O)N2CCC(c3ccc(C(=O)N(C)C)cc3)CC2)cc1NS(C)(=O)=O` [4-[1-(3-methanesulfonamido-4-methylbenzoyl)piperidin-4-yl]-N,N-dimethylbenzamide]: the “IC50s in the range” value is reported as “do not have IC50s in the range of about 0.001 μM to about 30 μM”.
As to `Cc1ccc(C(=O)N2CCC(c3ccc(C#N)c(C#N)c3)CC2)cc1NS(C)(=O)=O` [N-[5-[4-(3,4-dicyanophenyl)piperidine-1-carbonyl]-2-methylphenyl]methanesulfonamide], the “IC50s in the range” value is listed as “do not have IC50s in the range of about 0.001 μM to about 30 μM”.
On to `Cc1ccc(C(=O)N2CCC(c3cccc(Br)c3)CC2)cc1NS(C)(=O)=O` [N-[5-[4-(3-bromophenyl)piperidine-1-carbonyl]-2-methylphenyl]methanesulfonamide], for which the “IC50s in the range” value was “do not have IC50s in the range of about 0.001 μM to about 30 μM”.
